Experimental data reported in US6699877B2 (Gruenenthal GmbH, priority 2000, dated 2004).

Target: T1, glycine binding site of the NMDA receptor channel (Rattus norvegicus, UniProt P35439)
T1 construct: from tissue; host or cells: rat brain cortex and hippocampus membrane homogenate
Experiment: Receptor binding, displacement of (3H)-MDL 105.519 on rat cerebral membrane homogenates
Conditions: 10 μmol/l test substance; 1 nmol/l (3H)-MDL 105.519; read-out: Displacement (%, 10 μmol/l) of radioactive ligand from specific binding
Procedure: Receptor Binding (Glycine Binding Site of the NMDA Receptor Channel)
Experiments to determine the affinity of the compounds according to the invention of Formula I to the glycine binding site of the NMDA receptor channel were carried out on cerebral membrane homogenates (homogenate of Cortex- and Hippocampus-Areal from the brain of male rats, Wistar strain) (B. M. Baron, B. W. Siegel, B. L. Harrison, R. S. Gross, C. and P. Towers, Journal of Pharmacology and Experimental Therapeutics, Vol. 279, p. 62, 1996).
For this purpose, Cortex and Hippocampus from freshly removed rats' brains were dissected, homogenized in 5 mmol/l TRIS-acetate buffer, 0.32 mol/l sacharose pH 7.4 (10 ml/g fresh weight) with a Potter homogenizer (made by Braun/Melsungen, 10 piston strokes at 500 rpm) while cooling with ice and subsequently centrifuged for 10 minutes at 1,000 g and 4° C. The first supernatant material was collected and the sediment homogenized again with […] TRIS-acetate buffer, 0.32 mol/l safcharose pH 7.4 (5 ml/g original fresh weight) using the Potter homogenizer (10 piston strokes at 500 rpm) while cooling with ice and centrifuged for 10 minutes at 1,000 g and 4° C. The resultant supernatant material was combined with the supernatant material from the first centrifugation and centrifuged at 17,000 g for 20 minutes at 4° C. The supernatant material after this centrifugation was discarded, the membrane sediment taken up with 5 mmol/l TRIS-acetate buffer pH 8.0 (20 ml/g original fresh weight) and homogenized with 10 piston strokes at 500 rpm.
The membrane homogenate was then incubated for 1 hour at 4° C. and centrifuged for 30 minutes at 50,000 g and 4° C. The supernatant material was discarded and the centrifuge tube with the membrane sediment sealed with parafilm and frozen for 24 hours at −20° C. The membrane sediment was thawed on the following day, taken up with ice-cold 5 mmol/l TRIS-acetate buffer, 0.1% saponin (w/v) pH 7.0 (10 ml/g original fresh weight), homogenized with 10 piston strokes at 500 rpm and subsequently centrifuged for 20 minutes at 50,00 g and 4° C. The resultant supernatant material was discarded, the sediment taken up in a small volume with 5 mmol/l TRIS-acetate buffer pH 7.0 (about 2 ml/g original fresh weight) and homogenized again with 10 piston strokes at 500 rpm. After determining the protein content, the membrane homogenate was adjusted to a protein concentration of 10 mg protein/ml using 5 mmol/l TRIS-acetate buffer pH 7.0 and frozen in aliquots for testing.
For the receptor binding test, aliquots were thawed, diluted 1:10 with 5 mmol/l TRIS-acetate buffer pH 7.0, homogenized with 10 piston strokes at 500 rpm using the potter homogenizer (10 piston strokes at 500 rpm) while cooling with ice and centrifuged for 60 minutes at 55,000 g at 4° C. The supernatant material was decanted, the membrane sediment adjusted to a protein concentration of 1 mg/ml with ice-cold 50 mmol/l TRIS-acetate buffer pH 7.0, homogenized again with 10 piston strokes at 500 rpm and kept in suspension in the ice bath while stirring on a magnetic stirrer. 100 μl of this membrane homogenate per 1 ml of feedstock was used in each case in the receptor binding test (0.1 mg protein/ml in the final batch).
In the binding test, 50 mmol/l TRIS-acetate buffer pH 7.0 was used as buffer and 1 nmol/l (^3H)-MDL 105.519 (B. M. Baron et al 1996) was used as radioactive ligand. The proportion of unspecific binding was determined in the presence of 1 mmol/l glycine.
In further batches, the compounds according to the invention were added in concentration series and the displacement of the radioactive ligand from its specific binding to the glycine binding site of the NMDA receptor channel determined. The respective triple batches were incubated for 120 minutes at 4° C. and then harvested to determine the radioactive ligands bound to the membrane homogenate by filtration through glass fiber filter mats (GF/B). […]

Compound	inhibition at 10 µM [%]
CCOC(=O)C1CC(c2ccccc2)c2c(Cl)cc(Cl)cc2N1 (centres unmarked) [Example 14, 5,7-dichloro-4-phenyl-1,2,3,4-tetrahydroquinoline-2-carboxylic Acid Ethyl Ester]	38
O=C(O)C1CC(c2ccccc2)c2c(Cl)cc(Cl)cc2N1 (centres unmarked) [Example 15, 5,7-dichloro-4-phenyl-1,2,3,4-tetrahydroquinoline-2-carboxylic Acid]	75
CCOC(=O)C1CC(c2ccccc2C)c2c(Cl)cc(Cl)cc2N1 (centres unmarked) [Example 16, 5,7-dichloro-4-o-tolyl-1,2,3,4-tetrahydroquinoline-2-carboxylic Acid Ethyl Ester]	35
CCOC(=O)C1CC(c2cccc(C)c2)c2c(Cl)cc(Cl)cc2N1 (centres unmarked) [Example 17, 5,7-dichloro-4-m-tolyl-1,2,3,4-tetrahydroquinoline-2-carboxylic Acid Ester]	21
Cc1cccc(C2CC(C(=O)O)Nc3cc(Cl)cc(Cl)c32)c1 (centres unmarked) [Example 18, 5,7-dichloro-4-m-tolyl-1,2,3,4-tetrahydroquinoline-2-carboxylic Acid]	51
CCOC(=O)C1CC(c2ccc(C)cc2)c2c(Cl)cc(Cl)cc2N1 (centres unmarked) [Example 19, 5,7-dichloro-4-p-tolyl-1,2,3,4-tetrahydroquinoline-2-carboxylic Acid Ethyl Ester]	26
Cc1ccc(C2CC(C(=O)O)Nc3cc(Cl)cc(Cl)c32)cc1 (centres unmarked) [Example 20, 5,7-dichloro-4-p-tolyl-1,2,3,4-tetrahydroquinoline-2-Carboxylic Acid]	61
CCOC(=O)C1CC(c2ccc(C)cc2C)c2c(Cl)cc(Cl)cc2N1 (centres unmarked) [Example 21, 5,7-dichloro-4-(2,4-dimethylphenyl)-1,2,3,4-tetrahydroquinoline-2-carboxylic Acid Ethyl Ester]	26

More lines, now with the values ahead:

inhibition at 10 µM [%]	Compound
68	Cc1ccc(C2CC(C(=O)O)Nc3cc(Cl)cc(Cl)c32)c(C)c1 (centres unmarked) [Example 22, 5,7-dichloro-4-(2,4-dimethylphenyl)-1,2,3,4-tetrahydroquinoline-2-carboxylic Acid]
75	O=C(O)C1CC(c2ccccc2F)c2c(Cl)cc(Cl)cc2N1 (centres unmarked) [Example 27, 5,7-dichloro-4-(2-fluorophenyl)-1,2,3,4-tetrahydroquinoline-2-carboxylic Acid]
35	CCOC(=O)C1CC(c2cccc(F)c2)c2c(Cl)cc(Cl)cc2N1 (centres unmarked) [Example 28, 5,7-dichloro-4-(3-fluorophenyl)-1,2,3,4-tetrahydroquinoline-2-carboxylic Acid Ethyl Ester]
78	O=C(O)C1CC(c2cccc(F)c2)c2c(Cl)cc(Cl)cc2N1 (centres unmarked) [Example 29, 5,7-dichloro-4-(3-fluorophenyl)-1,2,3,4-tetrahydroquinoline-2-carboxylic Acid]
32	CCOC(=O)C1CC(c2ccc(F)cc2)c2c(Cl)cc(Cl)cc2N1 (centres unmarked) [Example 30, 5,7-dichloro-4-(4-fluorophenyl)-1,2,3,4-tetrahydroquinoline-2-carboxylic Acid Ethyl Ester]
58	O=C(O)C1CC(c2ccc(F)cc2)c2c(Cl)cc(Cl)cc2N1 (centres unmarked) [Example 31, 5,7-dichloro-4-(4-fluorophenyl)-1,2,3,4-tetrahydroquinoline-2-carboxylic Acid]
92	O=C(O)C1CC(c2ccccc2Cl)c2c(Cl)cc(Cl)cc2N1 (centres unmarked) [Example 32, 5,7-dichloro-4-(2-chlorophenyl)-1,2,3,4-tetrahydroquinoline-2-carboxylic Acid]
46	CCOC(=O)C1CC(c2ccccc2Br)c2c(Cl)cc(Cl)cc2N1 (centres unmarked) [Example 36, 4-(2-bromophenyl)-5,7-dichloro-1,2,3,4-tetrahydroquinoline-2-carboxylic Acid Ethyl Ester]
72	O=C(O)C1CC(c2cccc(Br)c2)c2c(Cl)cc(Cl)cc2N1 (centres unmarked) [Example 38, 4-(3-bromophenyl)-5,7-dichloro-1,2,3,4-tetrahydroquinoline-2-carboxylic Acid]
